Experimental data: US20260072027A1, “Peptides And Method” (Queen Mary University of London, priority 2022, published 2026)
Entries after “also recorded” stand apart in the source; their conditions may differ. Where no end group is shown, it is not given here.

Columns and labels:
CD4+ T-cells (PBMCs) = experiment: In vitro peptide stimulation and T-cell proliferation assay, CD4+; assay type: cell-based, human; conditions: for CD4+ mean SI (stimulation index): Study cohort 2
Summary of the method: (§1)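 CellTrace Violet-labelled fresh PBMCs from type 1 diabetic and healthy donors cultured 7 days in 5% autologous plasma with or without 20 μg/ml insulin peptides. Proliferation measured by flow cytometry as dye dilution within the CD4+ or CD8+ subset. Stimulation index = % proliferation stimulated/% unstimulated.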

CD8+ T-cells (PBMCs) = experiment: In vitro peptide stimulation and T-cell proliferation assay, CD8+; assay type: cell-based, human; conditions: for CD8+ mean SI (stimulation index): Study cohort 2
Summary of the method: as §1

serum IgG autoantibodies = experiment: ELISA for autoantibody detection: serum antibody binding to native and oxPTM insulin peptides; set-up: species or system human
Summary of the method: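 Plates coated overnight at 4 °C with native or HOCl/•OH-oxidised insulin peptides (10 μg/ml, carbonate buffer pH 9.6), blocked with 5% BSA, incubated 2 h with sera at 1:200, then probed with anti-human IgG-HRP and developed with TMB, read at 450 nm. Positivity cut-off: healthy-control mean O.D. plus 3×SEM.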

[1] = Controls (N = 11), listed as Nt-INSP-4
[2] = Type 1 diabetes (N = 18), listed as Nt-INSP-4
[3] = Study cohort 1, in house modifications

“LVEALYLVCGERGFFYTPKT [insulin B:11-30 native peptide]” was tested, and the “CD4+ T-cell response, subjects with SI > 1 (%)” value (CD4+ T-cells (PBMCs); Controls (N = 11)) was “(81.8%)”, the “CD4+ T-cell response, subjects with SI > 3 (%)” value (CD4+ T-cells (PBMCs); Controls (N = 11)) was “(45.5%)” and the “CD4+ T-cell response, subjects with SI > 5 (%)” value (CD4+ T-cells (PBMCs); Controls (N = 11)) was “(27.3%)”. The “CD4+ T-cell response, subjects with SI > 10 (%)” value (CD4+ T-cells (PBMCs); Controls (N = 11)) was “(9.1%)”, the “CD4+ T-cell response, subjects with SI > 3 (%)” value (CD4+ T-cells (PBMCs); [1]) was 45.5% and the “CD4+ T-cell response, subjects with SI > 1 (%)” value (CD4+ T-cells (PBMCs); Type 1 diabetes (N = 18)) was “(100%)”. For the same substance, the “CD4+ T-cell response, subjects with SI > 3 (%)” value (CD4+ T-cells (PBMCs); Type 1 diabetes (N = 18)) was “(66.7%)”, the “CD4+ T-cell response, subjects with SI > 5 (%)” value (CD4+ T-cells (PBMCs); Type 1 diabetes (N = 18)) was “(5.3%)” and the “CD4+ T-cell response, subjects with SI > 10 (%)” value (CD4+ T-cells (PBMCs); Type 1 diabetes (N = 18)) was “(50.0%)”. The “CD4+ T-cell response, subjects with SI > 3 (%)” value (CD4+ T-cells (PBMCs); [2]) was 66.7%, the “CD4+ mean SI (stimulation index)” value (CD4+ T-cells (PBMCs); controls) was 6.89±3.4 and the “CD4+ mean SI (stimulation index)” value (CD4+ T-cells (PBMCs); type 1 diabetes) was 119.8±51.69. For the same substance, the “CD8+ T-cell response, subjects with SI > 1 (%)” value (CD8+ T-cells (PBMCs); Controls (N = 11)) was “(63.6%)”, the “CD8+ T-cell response, subjects with SI > 3 (%)” value (CD8+ T-cells (PBMCs); Controls (N = 11)) was “(45.5%)” and the “CD8+ T-cell response, subjects with SI > 5 (%)” value (CD8+ T-cells (PBMCs); Controls (N = 11)) was “(27.3%)”. The “CD8+ T-cell response, subjects with SI > 10 (%)” value (CD8+ T-cells (PBMCs); Controls (N = 11)) was “(18.2%)”, the “CD8+ T-cell response, subjects with SI > 1 (%)” value (CD8+ T-cells (PBMCs); [1]) was 63.6% and the “CD8+ T-cell response, subjects with SI > 1 (%)” value (CD8+ T-cells (PBMCs); Type 1 diabetes (N = 18)) was “(72.2%)”. For the same substance, the “CD8+ T-cell response, subjects with SI > 3 (%)” value (CD8+ T-cells (PBMCs); Type 1 diabetes (N = 18)) was “(55.6%)”, the “CD8+ T-cell response, subjects with SI > 5 (%)” value (CD8+ T-cells (PBMCs); Type 1 diabetes (N = 18)) was “(38.9%)” and the “CD8+ T-cell response, subjects with SI > 10 (%)” value (CD8+ T-cells (PBMCs); Type 1 diabetes (N = 18)) was “(33.3%)”. The “CD8+ T-cell response, subjects with SI > 1 (%)” value (CD8+ T-cells (PBMCs); [2]) was 72.2%, the “CD8+ mean SI (stimulation index)” value (CD8+ T-cells (PBMCs); controls) was 5.948±3.125 and the “CD8+ mean SI (stimulation index)” value (CD8+ T-cells (PBMCs); type 1 diabetes) was 405.8±325.5. For the same substance, the “% binders, Healthy controls” value (serum IgG autoantibodies; [3]) was 20%, the “Mean ± SEM (absorbance, OD), Healthy controls” value (serum IgG autoantibodies; [3]) was 0.306 ± 0.032 and the “% binders, Type 1 diabetes” value (serum IgG autoantibodies; Study cohort 1, in house modifications, cut-off = mean of healthy controls to Nt-INSP plus 3 SEM) was 50%. For the same substance, the “Mean ± SEM (absorbance, OD), Type 1 diabetes” value (serum IgG autoantibodies; Study cohort 1 sera, in house modifications) was 0.469 ± 0.047 and the “type 1 diabetes binders (IgG autoantibody reactivity)” value (serum IgG autoantibodies; Study cohort 2, N = 18) was 38.9%.

In the case of “oxPTM-INSP-3: oxidised forms of insulin peptide 3 (A:12-21), in house oxidised or in silico derivatives (SLYQLENYCN; not fully specified (N-terminus); also: oxidised forms, in house oxidised or in silico derivatives, modified residues not defined)”, the “CD4+ T-cell response, subjects with SI > 3 (%)” value (CD4+ T-cells (PBMCs); Controls (N = 11)) is reported as 9.1%, the “CD4+ T-cell response, subjects with SI > 3 (%)” value (CD4+ T-cells (PBMCs); Type 1 diabetes (N = 18)) is reported as 22.2% and the “Antibody reactivity of serum samples (in words)” value (serum IgG autoantibodies; ELISA) is reported as “High background binding in healthy controls; also recorded: high background binding of healthy controls”.
